Source: patent publication US9725720B2, “Low molecular weight cationic lipids for oligonucleotide delivery” (SIRNA THERAPEUTICS, INC., priority 2010, dated 2017)

Key:
[1] = test system: mRNA transcript for the firefly (Photinus pyralis) luciferase gene; test: Mouse in vivo evaluation of efficacy (luciferase siRNA LNP, LSL-Luc transgenic mice, IVIS imaging); settings: RDV containing the compound + Luc siRNA, tail vein, 0.1 to 0.5 mg/kg siRNA, 48 hours post dose; compared with RDV containing octyl-CLinDMA (OCD); FIG. 1
Procedure: LNPs utilizing Compounds 1-12, in the nominal compositions described immediately above, were evaluated for in vivo efficacy. The siRNA targets the mRNA transcript for the firefly (Photinus pyralis) luciferase gene (Accession #M15077). […] The in vivo luciferase model employs a transgenic mouse in which the firefly luciferase coding sequence is present in all cells. ROSA26-LoxP-Stop-LoxP-Luc (LSL-Luc) transgenic mice licensed from the Dana Farber Cancer Institute are Induced to express the Luciferase gene by first removing the LSL sequence with a recombinant Ad-Cre virus (Vector Biolabs). Due to the organotropic nature of the virus, expression is limited to the liver when delivered via tail vein injection. Luciferase expression levels in liver are quantitated by measuring light output, using an IVIS imager (Xenogen) following administration of the luciferin substrate (Caliper Life Sciences). Pre-dose luminescence levels are measured prior to administration of the RDVs. Luciferin in PBS (15 mg/mL) is intraperitoneally (IP) injected in a volume of 150 μL. After a four minute incubation period mice are anesthetized with isoflurane and placed in the IVIS imager. The RDVs (containing siRNA) in PBS vehicle were tail vein injected n a volume of 0.2 mL. […] In vivo efficacy results are expressed as % inhibition of luminescence relative to pre-dose luminescence levels. […]

[2] = Rat in vivo toxicity: survival after LNP dosing; settings: for rats that failed to survive 48 hours: 3 mg/kg
[3] = Determination of cationic lipid levels in rat liver (LC/MS-MS); type: in vivo; settings: rats dosed with RDV containing the compound; compared with RDV containing DLinKC2DMA (Compound 20) or MC3 (Compound 21); FIG. 3
Procedure: Liver tissue was weighed into 20-ml vials and homogenized in 9 v/w of water using a GenoGrinder 2000 (OPS Diagnostics, 1600 strokes/min, 5 min). A 50 μL aliquot, of each tissue homogenate was mixed with 300 μL of extraction/protein precipitating solvent (50/50 acetonitrile/methanol containing 500 nM internal standard) and the plate was centrifuged to sediment precipitated protein. A volume of 200 μL of each supernatant was then transferred to separate wells of a 96-well plate and 10 μl samples were directly analyzed by LC/MS-MS.
Standards were prepared by spiking known amounts of a methanol stock solution of compound into untreated rat liver homogenate (9 vol water/weight liver). Aliquots (50 μL) each standard/liver homogenate was mixed with 300 μL of extraction/protein precipitating solvent (50/50 acetonitrile/methanol containing 500 nM internal standard) and the plate was centrifuged to sediment precipitated protein. A volume of 200 μL of each supernatant was transferred to separate wells of a 96-well plate and 10 μl of each standard was directly analyzed by LC/MS-MS.
Absolute quantification versus standards prepared and extracted from liver homogenate was performed using an Aria LX-2 HPLC system (Thermo Scientific) coupled to an API 4000 triple quadrupole mass spectrometer (Applied Biosystems). […]

Compound | in vivo efficacy (% inhibition of luminescence relative to pre-dose luminescence levels) [1] | rats that survived at 48 hours post dose ([2]; female, Sprague-Dawley (Crl:CD(SD)), rat, in vivo, 48 h) | cationic lipid liver levels [3] | rats that failed to survive 48 hours [2]
CCCCC/C=C\C/C=C\CCCCCCCCOC[C@H](CCCCCCCCC)N(C)C [Compound 1, (2S)—N,N-dimethyl-1-[(9Z,12Z)-octadeca-9,12-dien-1-yloxy]undecan-2-amine] | Greater efficacy | 1 out of 4 | lower | –
CCCCC/C=C\C/C=C\CCCCCCCCC1(CCCCCCCC/C=C\C/C=C\CCCCC)OCC(CCN(C)C)O1 (centres unmarked) [Compound 20, DLinKC2DMA] | – | – | – | 3 out of 4
CCCCC/C=C\C/C=C\CCCCCCCCC(CCCCCCCC/C=C\C/C=C\CCCCC)OC(=O)CCCN(C)C [Compound 21, MC3] | – | – | – | 2 out of 4
